From patent US8680253B2 (OliPass Corporation, priority 2008, dated 2014)
“And” between values parts separate entries of the source, which are not always exact repeats. Identical values can stand only once. {L(1)} = linker L(1) as defined below the publication's; {Fam} = fluorescein (FAM) label at the N-terminus; {Lys-NH2} = C-terminal lysine amide

Columns and labels:
[1] = test system: HeLa cells; assay: Cell penetration of fluorescein-tagged PNA oligomers, confocal fluorescence microscopy; format: cell-based, human
Method: (§1) In order to evaluate the cell penetration ability of PNA oligomers of this invention, cancer cells of human origin were treated with PNA oligomers covalently tagged with fluorescein. The applied method is provided in brief as follows.
(§2) To each cover glass (autoclaved) placed in each well of a 24-well plate, were seeded 20,000˜100,000 cells depending on the growth rate of the cell line used, and the cells were cultured at 37° C. and 5% CO2 for 16 to 24 h. Then the medium was replaced with 500 μl fresh Opti-MEM medium (with or without 1% FBS), to which was added an aliquot of aq stock solution of a PNA oligomer covalently tagged with fluorescein. After cells were cultured for a designated interval, the cells were washed with PBS, and fixed by incubating in 3.7% or 4% paraformaldehyde. The cells were thoroughly washed several times with PBS or PBS containing 0.1% Tween-20. Then the cover glass was mounted onto a slide glass using a drop of mounting solution and sealed with nail polish for confocal fluorescence microscopy. Fluorescence images were taken either on a Zeiss LSM 510 confocal microscope (Germany) at 63× objective or on a Nikon C1Si confocal microscope at 40× objective.

[2] = test system: complementary DNA; assay: Binding affinity for DNA: Tm between PNA and complementary DNA (UV absorbance at 260 nm); conditions: 4 μM PNA oligomer and 4 μM DNA, aq buffer pH 7.16, 10 mM sodium phosphate, 100 mM NaCl
Method: (§3) PNA oligomers of this invention were evaluated for their binding affinity for DNA by measuring Tm values as follows.
(§4) 4 μM PNA oligomer and 4 μM DNA were mixed in aq buffer (pH 7.16, 10 mM sodium phosphate, 100 mM NaCl), and incubated at 90° C. for a few minutes and slowly cooled down to RT. Then the solution was transferred into a 4 ml quartz cuvette and the cuvette was tightly sealed. The cuvette was mounted on an Agilent 8453 UV/Visible spectrophotometer and absorbance changes at 260 nm were recorded with increasing the temperature of the cuvette by either 0.5 or 1.0° C. per minute. From the absorbance vs temperature curve, the temperature showing the largest increase rate in absorbance was read out as the melting temperature Tm between PNA and DNA. DNAs for Tm measurement were purchased either from Bioneer, Inc. (www.bioneer.com, Daejon, South Korea) or from Ahram Biosystems (www.ahrambio.com, Seoul, South Korea), and used without further purification.
(§5) FIG. 3 provides graphs of absorbance changes with temperature for Oligo 17 against complementary or mismatch DNA. For sequences of the mismatch DNAs against Oligo 17, refer to Table 2. In FIG. 3, there is a transition temperature in each curve, which was read out as the Tm value for the curve.
(§6) Tm values are provided in Table 2 for PNA oligomers of this invention. These Tm values are presented for illustrative purposes only and should not be interpreted as a restriction to this invention.

[3] = test system: mdm2; assay: Antisense example: inhibition of ribosomal synthesis of mdm2 in JAR cells, western blotting; format: cell-based, human; conditions: 15 h
Method: The following antisense example is presented for illustrative purposes only and should not be interpreted as a restriction to the present invention.
JAR cells (ATCC catalog #HTB-144) were grown in RPMI-1640 medium supplemented with 10% FBS and 1% penicillin-streptomycin at 37° C. and 5% CO2. Cells were then seeded into each well of a 12-well plate containing 1 ml of the same medium, and treated with an aliquot of an aqueous stock solution of Oligo 9 or […] of a designated concentration. Then the cells were incubated at 37° C. and 5% CO2 for 15 h.
The cells in each well were washed with cold PBS and treated with 80 μl RIPA buffer containing 1% protease inhibitors cocktail, and the plate was incubated at 4° C. and agitated slowly for 15 min. The content of each well was scraped out into a microtube. The microtube was incubated in ice for 10 min and centrifuged at 10,000 g. The resulting supernatant was collected and subjected to protein quantification by Bradford assay and western blot analysis. For electrophoresis, 20 μg of protein was loaded onto each lane of the gel in a minigel apparatus, separated and transferred onto a PVDF membrane (0.45μ, Millipore). The primary mdm2 antibody used for western blotting was SC-965 (Santa Cruz Biotechnology).
FIG. 9 provides western blotting results for JAR cells treated with 5 μM or 10 μM Oligo 9, 5 μM or 10 μM Oligo 10, cotreatment with the oligomers at 5 μM or 10 μM each, and blank (no oligomer treatment).

[4] = test system: A549 cells; assay: Cell penetration of fluorescein-tagged PNA oligomers, confocal fluorescence microscopy; format: cell-based, human; conditions: 2 μM, 24 h, without FBS, 40× objective
Method: as §1, §2

[5] = test system: JAR cells; assay: as above; format: cell-based, human; conditions: 2 μM, 24 h, without FBS, 40× objective
Method: as §1, §2

[6] = test system: mismatch DNA; assay: Binding affinity for DNA: Tm between PNA and mismatch DNA (UV absorbance at 260 nm); conditions: for decreases in Tm with single base mismatches: single base mismatch versus complementary DNA
Method: as §3, §4, §5, §6

[7] = 5 μM, 1, 2, 3 and 24 h, without FBS, 63× objective
[8] = 2 μM, 24 h, without FBS, 40× objective

**Q.** Which results are given for “Fam-L(1)L(1)-TGC(1O3)-TAC(1O3)-TAC(1O3)-TG-Lys-NH2 (TGCTACTACTG; Fam-L(1)L(1) N-term, Lys-NH2, modified PNA, chemistry not fully specified) [Oligo 1, fluorescein-tagged modified PNA oligomer]”?
**A.** cell penetration, fluorescence intensity ([1]; 1 μM, 6 or 24 h, with 1% FBS, 40× objective): fluorescence intensity is faint even at 24 h; cell penetration, fluorescence intensity [1, 7]: fluorescence intensity is clear and becomes intense over 24 h

**Q.** How did the “cell penetration, fluorescence intensity” value [1, 7] turn out when “Fam-L(1)L(1)-TGC-TAC-TAC-TG-Lys-NH2 (TGCTACTACTG; all peptide nucleic acid (PNA), 5' {Fam}-{L(1)}-{L(1)}, 3' {Lys-NH2}) [Oligo 2, fluorescein-tagged 'unmodified' PNA oligomer, reference compound]” was run?
**A.** The value was “fluorescence intensity is faint”.

**Q.** Which “Tm between PNA and complementary DNA” value [2] does the source give for “Fam-L(2)-CA(5)T-A(4g)GT-A(4g)TA(5)-AGT-Lys-NH2 (CATAGTATAAGT; Fam-L(2) label, modified PNA, Lys-NH2, chemistry not fully specified) [Oligo 24, fluorescein-tagged modified PNA oligomer]” here?
**A.** The value was 70 °C.

**Q.** For “CAT-AGT-ATA-AGT-NH2 (CATAGTATAAGT; chemistry not fully specified) [Oligo 27, unmodified PNA oligomer, reference compound]”, which “Tm between PNA and complementary DNA” value [2] is on record?
**A.** The value was 55 °C.

**Q.** How did the “Tm between PNA and complementary DNA” value [2] turn out when “TGC(2O2)-TAC-TAC(2O2)-TG-Lys-NH2 (TGCTACTACTG; modified PNA, monomer codes such as C(1O3), A(5) undefined, C-terminal Lys-NH2, further chemistry not given here) [Oligo 8, modified PNA oligomer]” was run?
**A.** Its value is 68 °C.

**Q.** “GCA-CAT-TTG-CCT-Lys-NH2 (GCACATTTGCCT; all peptide nucleic acid (PNA), 3' {Lys-NH2}) [Oligo 11, unmodified PNA oligomer, reference compound]” was tested. Which “Tm between PNA and complementary DNA” value [2] did it give?
**A.** Its value is 58 °C and 59 °C.

**Q.** What does the source list for “GC(1O2)A-C(1O2)AT-TTG-C(1O2)CT-NH2 (GCACATTTGCCT; chemistry not fully specified) [Oligo 10, modified PNA oligomer]”?
**A.** inhibition of ribosomal synthesis of mdm2 ([3]; 5 μM): significantly inhibited; inhibition of ribosomal synthesis of mdm2 ([3]; 10 μM): significantly inhibited

**Q.** Which “cell penetration, fluorescence intensity” value [4] does the source give for “Fam-L(2)-TG(5)G-C(1O2)AA-C(1O2)TG-A(5)T-Lys-NH2 (TGGCAACTGAT; Fam-L(2) label, modified PNA, Lys-NH2, chemistry not fully specified) [Oligo 21, fluorescein-tagged modified PNA oligomer]” here?
**A.** Its value is “fluorescence intensity is strong”.

**Q.** What about the “cell penetration, fluorescence intensity” value [5] of the same substance?
**A.** The value was “fluorescence intensity is strong”.

**Q.** And the “cell penetration, fluorescence intensity” value ([1]; 2 μM, 12 h, without FBS, 40× objective)?
**A.** The value was “fluorescence intensity is apparent”.

**Q.** What about the “cell penetration, fluorescence intensity” value [1, 8] of the same substance?
**A.** Its value is “significantly stronger than that in FIG. 7(e)”.

**Q.** “CA(4)T-A(4)GT-A(4)TA-A(4)GT-NH2 (CATAGTATAAGT; PNA-like chain with modified monomers A(5)/A(4), C-terminal amide, codes undefined, further chemistry not given here) [Oligo 13, modified PNA oligomer]” was tested. Which “Tm between PNA and complementary DNA” value [2] did it give?
**A.** The value was 64 °C.

**Q.** With “CA(5)T-A(5)GT-A(5)TA-A(5)GT-NH2 (CATAGTATAAGT; chemistry not fully specified) [Oligo 14, modified PNA oligomer]” as the substance, how does the “Tm between PNA and complementary DNA” value [2] read?
**A.** The value was 69 °C.

**Q.** “TGC(1O3)-TAC-TAC(1O3)-TG-Lys-NH2 (TGCTACTACTG; modified PNA, C-terminal Lys-NH2, chemistry not fully specified) [Oligo 3, modified PNA oligomer]” was tested. Which “Tm between PNA and complementary DNA” value [2] did it give?
**A.** The value was 65 °C.

**Q.** “TGC-TAC(1O3)-TAC-TG-Lys-NH2 (TGCTACTACTG; modified PNA, monomer codes such as C(1O3), A(5) undefined, C-terminal Lys-NH2, further chemistry not given here) [Oligo 4, modified PNA oligomer]” was tested. Which “Tm between PNA and complementary DNA” value [2] did it give?
**A.** The value was 61 °C.

**Q.** “CA(7)T-A(7)GT-A(7)TA-A(7)GT-NH2 (CATAGTATAAGT; chemistry not fully specified) [Oligo 15, modified PNA oligomer]” was tested. Which “Tm between PNA and complementary DNA” value [2] did it give?
**A.** Its value is 71 °C.

**Q.** Which results are given for “Fam-L(2)-TT-C(1O2)AT-A(5)GT-A(5)TA-AG(5)T-Lys-NH2 (TTCATAGTATAAGT; Fam-L(2) label, modified PNA, Lys-NH2, chemistry not fully specified) [Oligo 22, fluorescein-tagged modified PNA oligomer]”?
**A.** cell penetration, fluorescence intensity [4]: good cell penetration; cell penetration, fluorescence intensity [5]: good cell penetration; cell penetration, fluorescence intensity [1, 8]: good cell penetration

**Q.** With “TG(5)G-C(1O2)AA-C(1O2)TG-A(5)T-Lys-NH2 (TGGCAACTGAT; modified PNA, C-terminal Lys-NH2, chemistry not fully specified) [Oligo 20, modified PNA oligomer]” as the substance, how does the “Tm between PNA and complementary DNA” value [2] read?
**A.** The value was 84 °C.

**Q.** And the “Tm between PNA and mismatch DNA” value ([6]; mismatch (G → A), DNA ATC-AAT-TGC-CA)?
**A.** Its value is 65 °C.

**Q.** What about the “Tm between PNA and mismatch DNA” value ([6]; mismatch (G → T), DNA ATC-ATT-TGC-CA) of the same substance?
**A.** The value was 62 °C.

**Q.** What about the “decreases in Tm with single base mismatches” value [6] of the same substance?
**A.** Its value is 19˜22 °C.

**Q.** How did the “Tm between PNA and complementary DNA” value [2] turn out when “CA(2O2)T-A(2O2)GT-A(2O2)TA-A(2O2)GT-NH2 (CATAGTATAAGT; chemistry not fully specified) [Oligo 18, modified PNA oligomer]” was run?
**A.** The value was 66 °C.

**Q.** With “GC(2O2)A-C(2O2)AT-TTG-C(2O2)CT-NH2 (GCACATTTGCCT; chemistry not fully specified) [Oligo 9]” as the substance, how does the “inhibition of ribosomal synthesis of mdm2” value ([3]; 5 μM) read?
**A.** The value was “significantly inhibited”.

**Q.** And the “inhibition of ribosomal synthesis of mdm2” value ([3]; 10 μM)?
**A.** Its value is “significantly inhibited”.

**Q.** How did the “Tm between PNA and complementary DNA” value [2] turn out when “CAT-AGT-ATA-AGT-Lys-NH2 (CATAGTATAAGT; all peptide nucleic acid (PNA), 3' {Lys-NH2}) [Oligo 16, unmodified PNA oligomer, reference compound]” was run?
**A.** Its value is 56 °C.

**Q.** For “CA(3)T-A(3)GT-A(3)TA-A(3)GT-NH2 (CATAGTATAAGT; chemistry not fully specified) [Oligo 12]”, which “Tm between PNA and complementary DNA” value [2] is on record?
**A.** Its value is 60 °C.

**Q.** For “CA(5)T-A(5)GT-A(5)TA-A(5)GT-Lys-NH2 (CATAGTATAAGT; modified PNA, C-terminal Lys-NH2, chemistry not fully specified) [Oligo 17, modified PNA oligomer]”, which “Tm between PNA and complementary DNA” value [2] is on record?
**A.** Its value is 72 °C.

**Q.** What about the “Tm between PNA and mismatch DNA” value ([6]; mismatch (T → A), DNA ACT-TAA-ACT-ATG) of the same substance?
**A.** The value was 59 °C.

**Q.** And the “Tm between PNA and mismatch DNA” value ([6]; mismatch (T → C), DNA ACT-TAC-ACT-ATG)?
**A.** The value was 61 °C.

**Q.** And the “Tm between PNA and mismatch DNA” value ([6]; mismatch (T → G), DNA ACT-TAG-ACT-ATG)?
**A.** Its value is 58 °C.

**Q.** What about the “decreases in Tm with single base mismatches” value [6] of the same substance?
**A.** Its value is 11˜14 °C.

**Q.** How did the “Tm between PNA and complementary DNA” value [2] turn out when “TGC-TAC-TAC-TG-Lys-NH2 (TGCTACTACTG; all peptide nucleic acid (PNA), 3' {Lys-NH2}) [Oligo 5, unmodified PNA oligomer, reference compound]” was run?
**A.** Its value is 55 °C.
